Experimental data from patent US11241410B2, “Method and compound for the treatment of covid-19” (priority 2020, dated 2022).
Converted amounts (≈) assume the structure as drawn. “Also recorded” adds a separate entry of the source. Read-outs that look alike come from different tables or passages of the source.

Experiments:
Daphnia = settings: in vivo; cited from earlier work
[1] = cited from earlier work
SARS-CoV-2 = experiment: microbe, parasite or virus in culture; assay type: cell-based
CEM-SS cells = experiment: Drug induced toxicity in CEM-SS cells; assay type: cell-based; settings: Homo sapiens, read-out: 50% inhibitory concentration (IC50), drug induced toxicity, high-test concentration 100 ug/ml
[2] = Table 10 summary; cited from earlier work
gamma interferon = experiment: Production of gamma interferon by cells; assay type: cell-based; settings: compared with positive control PMA-Ionomycin combination
Source text: FIG. 4 illustrates a graph showing production of gamma interferon by cells receiving 90I compared to other drugs, according to an exemplary embodiment of the present general inventive concept.
Referring to FIG. 4, furthermore, 90I has proven to stimulate the production of gamma interferon (i.e. a dimerized soluble cytokine that is the only member of the type II class of interferons and is a product of human leukocytes and human lymphocytes). More specifically, […] and differentiate into tissue macrophages, such that each of the tissue macrophages may serve as a vehicle for transporting viruses to a variety of tissues. The ability of antiretroviral agents to cross the blood brain barrier is one important consideration, since the brain acts as a sanctuary for viruses as well as a site for disease progression.
Referring again to FIG. 4, activated CD8+ cells are reported to produce high levels of gamma interferon, which may be involved in the anti-HIV-1 immune responses, contributing to both control of viral spread and concomitant lymphoid follicular lyses. […] This finding may have a far-reaching implication and relevant to interleukin 12 (IL-12) (i.e. a cytokine that is produced by activated antigen-presenting cells, such as dendritic cells and/or macrophages). […]

Vero E6 cells = experiment: Toxicity in Vero E6 cells; assay type: cell-based
Description: Remdesivir was used as a control and verified that the assay was working. The first independent trial (done in quadruplicate) involved using the very first BTS compound sent to us, dissolved at 10 ug/ml in DMSO. Toxicity was observed ˜0.078 ug/ml ([…] based on the molecular weight we were given and the concentration of the drug). The dose curve (log (inhibitor) vs. response (three parameters)) yielded the nicest curve, but only reached a maximum of ˜20% protection. […] Twenty-two 2-fold dilutions of the drug starting from 10 ug/ml (˜323 uM).
FIG. 18 illustrates a graph showing 90I toxicity in Vero E6 cells, according to an exemplary embodiment of the present general inventive concept.

activated sludge = settings: cited from earlier work
mouse lymphoma cells = settings: with and without metabolic activation; cited from earlier work
[3] = 28 days; cited from earlier work
guinea pigs = settings: intradermal and topical, listed as DEGD; cited from earlier work
CHL cells = settings: cited from earlier work
rat = settings: cited from earlier work
[4] = test system: RF laboratory strain of HIV-1; experiment: Antiviral drug assay in CEM-SS cells; assay type: cell-based; settings: Human immunodeficiency virus 1, CEM-SS, read-out: 50% effective concentration (EC50)
rats [5] = settings: cited from earlier work
dogs = settings: up to 300 mg/kg/day for 90 days; cited from earlier work
intact rabbit skin = settings: semi-occlusive, four hours, listed as DEGD; cited from earlier work
Pimephales promelas = settings: acute, 96 h; cited from earlier work
[6] = cited from earlier work; remark: listed apart in the source
bacterial = settings: with and without metabolic activation; cited from earlier work
[7] = test system: ovariectomized adult Spraque-Dawley (CD) rats; settings: 500-2000 mg/kg/day for 7 days, oral gavage, up to maximally tolerated dose; cited from earlier work
rats [8] = settings: OECD 401; cited from earlier work
MDR-27221 HIV strain = experiment: microbe, parasite or virus in culture; assay type: cell-based, HIV-1
Eisenia foetida = settings: cited from earlier work
HIV = HIV in vitro tests (Table 1); assay type: cell-based
rats [9] = settings: cited from earlier work; remark: listed apart in the source
[10] = rats, cited from earlier work
eye of the rabbit = settings: single instillation, listed as DEGD; cited from earlier work
[11] = test system: Seleneastrum capricornutum; settings: in vivo; cited from earlier work
Pseudomonas putida = settings: cited from earlier work
HCoV = settings: Huh7, 4 days, 96 well, reference compound; cited from earlier work
Huh7 = settings: Huh7, 4 days, CellTiter Glo, reference compound; cited from earlier work
SARS-CoV-2 main protease = molecular target: T1, SARS-CoV-2 main protease (Severe acute respiratory syndrome coronavirus 2, UniProt P0DTD1); settings: auto dock; cited from earlier work
T1 construct: also MProtease (SARS-CoV-2 main protease)

Mpro = molecular target: T2, Mpro (Severe acute respiratory syndrome coronavirus 2, UniProt P0DTD1); settings: Mpro and substrate, 40 min, 384 well; cited from earlier work
T2 construct: also MProtease (SARS-CoV-2 main protease)

COVID-19 = settings: after one month; control arm 12.8%, difference not statistically significant; cited from earlier work
[12] = Severe acute respiratory syndrome coronavirus 2, preliminary, first independent trial
[13] = from ppm by standard conversion factors
[14] = HIV in vitro tests, read-out: EC50

SMILES: O=C(OCCOCCOC(=O)c1ccccc1)c1ccccc1 [90I, diethylene glycol dibenzoate]
- EC50 for Daphnia (Daphnia): 6.7 µg/mL
- Log P [1]: 3.04
- EC50 (SARS-CoV-2; [12]): 4100 nM
- IC50 (SARS-CoV-2; [12]): 2.8 nM
- maximum protection (SARS-CoV-2; dose curve log(inhibitor) vs. response, SARS-CoV-2 infected cells): ~20%
- IC50 (CEM-SS cells): > 100 µg/mL
- Genotoxicity [2]: Negative
- amount of gamma interferon produced (gamma interferon): equivalent to that of the positive control
- concentration at which toxicity was observed (Vero E6 cells; Vero E6, converted with molecular weight given): ~2500 nM
- concentration at which toxicity was observed (Vero E6 cells; Vero E6, first independent trial, quadruplicate): ~78 ng/mL
- NOEC, activated sludge (activated sludge; Table 11): NOEC ≥100 mg/L,
- activated sludge respiration (activated sludge; at 100 mg/L): not inhibited
- mutagenic potential, mammalian cell (mouse lymphoma cells): did not demonstrate mutagenic potential
- biodegradation [3]: 93 % of ThOD
- Sensitisation (guinea pigs): No allergic skin reaction and Not
- clastogenic activity (CHL cells): No response considered to be indicative of clastogenic
- Repeat dose, NOAEL (rat; Table 10 summary): 1,000 mg/kg bw/day
- NOAEL (rat; rat, thirteen week, diet): 1,000 mg/kg bw
- EC50 [4]: 0.02 µg/mL (≈ 0.0636 µM)
- Reproductive toxicity, R (rats [5]; Table 10 summary): R: No
- NOAEL for the FO and FI parent animals (rats [5]; [13]): 500 mg/kg bw/day
- NOAEL for the developing offspring (rats [5]; [13]): 165 mg/kg bw/day
- NOEL for reproductive parameters (rats [5]; [13]): 500 mg/kg bw/day
- NOAEL for the FO and FI parent animals, dietary concentration (rats [5]; rats, 2-generation, diet): 10,000 ppm
- NOAEL for the developing offspring, dietary concentration (rats [5]; rats, 2-generation, diet): 3,300 ppm
- NOEL for reproductive parameters, dietary concentration (rats [5]; rats, 2-generation, diet): 10,000 ppm
- effects of dietary administration (dogs): No effects
- Skin irritation (intact rabbit skin): No dermal reaction and No
- LC50 to fish (Pimephales promelas): 3.9 µg/mL (≈ 12.4 µM)
- Water solubility [6]: 193 µg/mL
- mutagenic potential, bacterial (bacterial): did not demonstrate mutagenic potential
- estrogenic activity [7]: did not exhibit estrogenic activity
- LD50, oral (rats [8]): 4,198 mg/kg bw
- EC50 (MDR-27221 HIV strain; Human immunodeficiency virus 1): 3 µg/mL (≈ 9.54 µM)
- inhibition of the MDR strain (MDR-27221 HIV strain; MDR-27221): strong inhibitory activity
- LC50 (14 d), earthworm (Eisenia foetida; 14 d, Table 11): d) >1,000 mg/kg
- acute toxicity to earthworm (Eisenia foetida; 14 days): greater than 1,000 ppm
- EC50 (HIV; Human immunodeficiency virus 1): 0.3 nM
- Maternal toxicity (rats [9]; Table 10 summary): 1,000 mg/kg bw/day
- Reproductive toxicity (NOEL) (rats [9]; Table 10 summary): 250 mg/kg bw/day
- Reproductive toxicity NOAEL (rats [9]; Table 10 summary): 500 mg/kg bw/day
- Reproductive toxicity, D (rats [9]; Table 10 summary): D: Yes
- NOAEL for prenatal development (rats [9]; rats, diet): 500 mg/kg/day
- NOEL for fetal growth and development (rats [9]; rats, diet): 250 mg/kg/day
- NOEL for maternal toxicity (rats [9]; rats, diet): 1,000 mg/kg/day
- time within which almost all of the dose was adsorbed, metabolized and excreted in the urine ([10]; single oral doses of 50 and 750 mg/kg): ≤ 24 h
- metabolic pathway ([10]; single oral doses): hydrolysis of the ester bonds to benzoic acid
- Eye irritation (eye of the rabbit): transient very slight conjunctival irritation only; also recorded: Slight
- growth rate-based EC50 for algae [11]: 11 µg/mL
- EC50 (P. putida) (Pseudomonas putida; Table 11): EC50 >10 mg/L
- inhibitory effect (1050) (Pseudomonas putida; highest testable concentration 10 mg/L): > 10 mg/L

SMILES: CCN(CC)CCCC(C)Nc1ccnc2cc(Cl)ccc12 (centres unmarked) [Chloroquine phosphate]
- EC50 (HCoV): 3450 nM
- CC50 (Huh7): 40800 nM

SMILES: CCN(CC)CCCC(C)Nc1ccnc2cc(Cl)ccc12 (centres unmarked) [Chloroquine]
- Dissociation Constant (SARS-CoV-2 main protease): 5.0E−05
- SMINA score (SARS-CoV-2 main protease): −5.4
- Vina score (SARS-CoV-2 main protease): −5.9

SMILES: CC(C)c1nc(CN(C)C(=O)N[C@@H](CCN2CCOCC2)C(=O)N[C@H](CC[C@H](Cc2ccccc2)NC(=O)OCc2cncs2)Cc2ccccc2)cs1 [Cobicistat]
- Dissociation Constant (SARS-CoV-2 main protease): 5.7E−06
- SMINA score (SARS-CoV-2 main protease): −7.2
- Vina score (SARS-CoV-2 main protease): −7.2

SMILES: CCN(CCO)CCCC(C)Nc1ccnc2cc(Cl)ccc12 (centres unmarked) [Hydroxychloroquine]
- Dissociation Constant (SARS-CoV-2 main protease): 2.3E−05
- SMINA score (SARS-CoV-2 main protease): −6.4
- Vina score (SARS-CoV-2 main protease): −6.0

SMILES: CC(C)(C)NC(=O)[C@@H]1CN(Cc2cccnc2)CCN1C[C@@H](O)C[C@@H](Cc1ccccc1)C(=O)N[C@H]1c2ccccc2C[C@H]1O [Indinivir]
- EC50 (HIV; [14]): 5 nM

SMILES: Cc1cccc(C)c1OCC(=O)N[C@@H](Cc1ccccc1)[C@@H](O)C[C@H](Cc1ccccc1)NC(=O)[C@H](C(C)C)N1CCCNC1=O [Lopinavir]
- Dissociation Constant (SARS-CoV-2 main protease): 3.4E−06
- SMINA score (SARS-CoV-2 main protease): −7.5
- Vina score (SARS-CoV-2 main protease): −7.4
- EC50 (Mpro): 108000 nM

SMILES: Cc1ccnc2c1NC(=O)c1cccnc1N2C1CC1 [Neverepin]
- EC50 (HIV; [14]): 48 nM

SMILES: CCOC(=O)C1=C[C@@H](OC(CC)CC)[C@H](NC(C)=O)[C@@H](N)C1 [Oseltamivir]
- Dissociation Constant (SARS-CoV-2 main protease): 1.8E−05
- SMINA score (SARS-CoV-2 main protease): −6.3
- Vina score (SARS-CoV-2 main protease): −6.5

SMILES: CCC(CC)COC(=O)[C@H](C)N[P@](=O)(OC[C@H]1O[C@@](C#N)(c2ccc3c(N)ncnn23)[C@H](O)[C@@H]1O)Oc1ccccc1 [Remdesivir]
- patients who had died (COVID-19): 13.9%
- CC50 (Huh7): 29000 nM

SMILES: CC(C)c1nc(CN(C)C(=O)N[C@H](C(=O)N[C@@H](Cc2ccccc2)C[C@H](O)[C@H](Cc2ccccc2)NC(=O)OCc2cncs2)C(C)C)cs1 [Retinovir]
- EC50 (HIV; [14]): 2 nM

SMILES: CC(C)c1nc(CN(C)C(=O)N[C@H](C(=O)N[C@@H](Cc2ccccc2)C[C@H](O)[C@H](Cc2ccccc2)NC(=O)OCc2cncs2)C(C)C)cs1 [Ritonavir]
- Dissociation Constant (SARS-CoV-2 main protease): 2.5E−06
- SMINA score (SARS-CoV-2 main protease): −7.7
- Vina score (SARS-CoV-2 main protease): −7.5

SMILES: CC(C)(C)NC(=O)[C@@H]1C[C@@H]2CCCC[C@@H]2CN1C[C@@H](O)[C@H](Cc1ccccc1)NC(=O)[C@H](CC(N)=O)NC(=O)c1ccc2ccccc2n1 [Saquinovir]
- EC50 (HIV; [14]): 1.2 nM

SMILES: CCOC(=O)c1c(CSc2ccccc2)n(C)c2cc(Br)c(O)c(CN(C)C)c12 [Umifenovir]
- Dissociation Constant (SARS-CoV-2 main protease): 2.2E−05
- SMINA score (SARS-CoV-2 main protease): −6.0
- Vina score (SARS-CoV-2 main protease): −6.4

SMILES: O=c1[nH]cnc2c1ncn2[C@H]1CC[C@@H](CO)O1 [ddI]
- EC50 (HIV; [14]): 5.6 nM

SMILES: Nc1ccn([C@H]2CC[C@@H](CO)O2)c(=O)n1 [ddc]
- EC50 (HIV; [14]): 1 nM
